Measured values as given in patent publication US8288367B2, “Substituted estratriene derivatives as 17BETA HSD inhibitors” (Solvay Pharmaceuticals GmBH, priority 2006, dated 2012).

Assays:
[1] = biological target: T1, recombinant human 17β-HSD2 (Homo sapiens, UniProt P37059); assay: Recombinant 17β-HSD2 assay (HPLC, 3H-estradiol conversion); format: biochemical; details: 50 nM estradiol, 1 mM β-NAD, read-out: Inhibition of rec. 17β-HSD2; for inhibition at 0.1 µM: 100 nM compound; for inhibition at 1 µM: 1 μm compound
T1 construct: made in house; host or cells: Sf9 insect cells (baculovirus, Bac to Bac Expression System)
T1 sequence (P37059 1-387): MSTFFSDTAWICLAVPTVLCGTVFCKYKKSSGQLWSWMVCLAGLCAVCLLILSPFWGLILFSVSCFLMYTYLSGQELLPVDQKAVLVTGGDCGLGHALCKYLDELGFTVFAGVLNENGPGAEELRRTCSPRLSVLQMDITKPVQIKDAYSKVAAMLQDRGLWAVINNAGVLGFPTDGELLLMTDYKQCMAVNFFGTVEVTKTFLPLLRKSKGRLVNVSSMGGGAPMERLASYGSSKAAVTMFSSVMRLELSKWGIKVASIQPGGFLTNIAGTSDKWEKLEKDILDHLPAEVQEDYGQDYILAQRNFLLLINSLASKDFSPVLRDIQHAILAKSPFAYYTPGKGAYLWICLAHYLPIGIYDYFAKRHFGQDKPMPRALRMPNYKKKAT
Experimental: 17β-HSD1 or 17β-HSD2 purification: Recombinant 17β-HSD1 and 17β-HSD2 baculoviruses were generated by the “Bac to Bac Expression System” (Invitrogen). Recombinant 17β-HSD1 or 17β-HSD2 bacmids were transfected to Sf9 insect cells using “Cellfectin Reagent” (Invitrogen). 60 h later cells were harvested; the fractions including 17β-HSD1 or 17β-HSD2 were isolated as described by Puranen et al. (1994). Aliquots were stored frozen until determination of enzymatic activity. Recombinant 17β-HSD2 assay: Recombinant 17β-HSD2 assay was performed as described for 17β-HSD1 but with following modifications: 6 μg/ml of recombinant protein homogenate, 50 nM Estradiol (Sigma, E8875) as a substrate, 800 000 cpm/ml ^3H-estradiol (PerkinElmer, NET317) as a tracer substrate and 1 mM β-NAD (Sigma N7004) as a co-factor were used. Total radioactivity for estrone and estradiol were determined in each sample and percent inhibition of estrone conversion by the respective inhibitor was calculated. For the calculation of % inhibition the following formula was used: [formula] Percent inhibition was calculated as follows: % inhibition=100−% conversion

17β-HSD3 enzyme = biological target: T2, 17β-HSD3 enzyme (Homo sapiens, UniProt P37058); assay: Inhibition of 17β-HSD type 3 enzyme in MCF-7 cells stably expressing 17β-HSD3 (HPLC); format: cell-based; details: MCF7, MCF-7 cells expressing 17β-HSD3, 2 nM androstenedione; for inhibition at 1 µM: 1 μM compound; for inhibition at 10 µM: 10 μM compound
T2 construct: expressed in transfected cells; host or cells: MCF-7 cell lines stably expressing 17β-HSD3
T2 sequence (P37058 1-310): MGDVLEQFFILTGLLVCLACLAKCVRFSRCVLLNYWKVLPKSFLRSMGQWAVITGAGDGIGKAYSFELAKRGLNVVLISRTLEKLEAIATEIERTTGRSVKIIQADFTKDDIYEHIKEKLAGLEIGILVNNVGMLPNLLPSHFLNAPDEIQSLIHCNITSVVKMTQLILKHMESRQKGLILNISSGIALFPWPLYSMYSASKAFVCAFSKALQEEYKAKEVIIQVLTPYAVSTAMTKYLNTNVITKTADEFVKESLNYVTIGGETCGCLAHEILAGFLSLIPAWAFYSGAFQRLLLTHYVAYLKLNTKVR
Experimental: The compounds were screened in respect of 17β-HSD3 enzyme activity in vitro on established MCF-7 cell lines, each stably expressing the 17β-HSD3 enzyme. The interconversion of substrate by 17β-HSD3 and the 17β-HSD3 inhibiting activity of chemical compounds in these cell lines were detected by HPLC system.
Varying amounts of the test compounds were incubated in the growth medium of the 17β-HSD3 expressing cells together tritium labeled androstenedione (2 nM). The medium samples were removed after exact incubation time and the reaction is stopped by trichloroacetic acid (TCA). The samples were analyzed by HPLC-coupled flow scintillation analysis.
Conversion: The 17β-HSD3 inhibiting activity of an individual test compound was calculated by comparing the conversion of a control sample without any test compound (referred to as “Negative Control”) to the (reduced) conversion of the test sample containing the particular compound to be tested (referred to as “Test Sample”).

[2] = biological target: T3, recombinant human 17β-HSD1 (Homo sapiens, UniProt P14061); assay: Recombinant 17β-HSD1 assay (HPLC, 3H-estrone conversion); format: biochemical; details: 30 nM estrone, 1 mM NADPH, 30 min RT, read-out: Inhibition of rec. 17β-HSD1; for inhibition at 0.1 µM: 100 nM compound; for inhibition at 1 µM: 0.5 h, 1 μm compound
T3 construct: made in house; host or cells: Sf9 insect cells (baculovirus, Bac to Bac Expression System)
T3 sequence (P14061 1-328): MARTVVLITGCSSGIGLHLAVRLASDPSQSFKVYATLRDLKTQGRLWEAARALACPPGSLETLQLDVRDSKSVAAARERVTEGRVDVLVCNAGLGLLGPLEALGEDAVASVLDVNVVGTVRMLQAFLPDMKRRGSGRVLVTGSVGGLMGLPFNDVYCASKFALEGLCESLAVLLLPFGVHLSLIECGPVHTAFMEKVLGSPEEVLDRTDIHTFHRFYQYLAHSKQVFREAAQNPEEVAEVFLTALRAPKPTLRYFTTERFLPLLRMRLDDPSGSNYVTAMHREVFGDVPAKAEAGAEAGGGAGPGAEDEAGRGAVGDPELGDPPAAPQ
Experimental: 17β-HSD1 or 17β-HSD2 purification: Recombinant 17β-HSD1 and 17β-HSD2 baculoviruses were generated by the “Bac to Bac Expression System” (Invitrogen). Recombinant 17β-HSD1 or 17β-HSD2 bacmids were transfected to Sf9 insect cells using “Cellfectin Reagent” (Invitrogen). 60 h later cells were harvested; the fractions including 17β-HSD1 or 17β-HSD2 were isolated as described by Puranen et al. (1994). Aliquots were stored frozen until determination of enzymatic activity.
Recombinant 17β-HSD1 assay: Recombinant protein homogenate (0.1 μg/ml) was incubated in 20 mM KH2PO4 pH 7.4 reaction buffer, including protease inhibitors (Complete Protease Inhibitor Cocktail tablet, Roche Diagnostics, 1697498), with 30 nM estrone (Sigma, E9750) as substrate, 800 000 cpm/ml ^3H-estrone (PerkinElmer, NET319001MC) as a tracer substrate, and 1 mM NADPH (Sigma, N1630) as a co-factor for 30 min at RT, in the presence of potential inhibitors at concentrations of 1 μM or 0.1 μM. Inhibitor stock solutions were prepared in DMSO. The enzyme reaction was stopped by addition of trichloroacetic acid (1% final concentration). Samples were centrifuged in a microtiter plate at 4000 rpm for 10 min. Supernatants were applied to reverse phase HPLC on a Waters Symmetry C18 column, equipped with a Waters Sentry Guard column. Isocratic HPLC runs were performed at RT at a flow rate of 1 ml/min of acetonitrile:water 48:52 as running solvent. Radioactivity was monitored in the eluate by a Packard Flow Scintillation Analyzer. Total radioactivity for estrone and estradiol were determined in each sample and percent inhibition of estradiol conversion by the respective inhibitor was calculated
For the calculation of % inhibition the following formula was used:
[formula] Percent inhibition was calculated as follows: % inhibition=100−% conversion

| Structure (SMILES) | inhibition at 0.1 µM [1] [%] | inhibition at 1 µM [1] [%] | inhibition at 1 µM (17β-HSD3 enzyme) [%] | inhibition at 10 µM (17β-HSD3 enzyme) [%] | inhibition at 0.1 µM [2] [%] | inhibition at 1 µM [2] [%] |
| --- | --- | --- | --- | --- | --- | --- |
| C[C@]12CC[C@@H]3c4ccc(B(O)O)cc4CC[C@H]3[C@@H]1[C@@H](CCCC(=O)NC1CCCCC1)CC2=O [Compound 17, [15alpha-[4-(cyclohexylamino)-4-oxobutyl]-17-oxoestra-1(10),2,4-trien-3-yl]boronic acid] | -5.4 | 1.8 | 6 | 45 | 24 | 31 |
| C[C@]12CC[C@@H]3c4ccc(B(O)O)cc4CC[C@H]3[C@@H]1[C@@H](CCCC(=O)NCc1ccc3c(c1)OCO3)CC2(F)F [Compound 50, [15alpha-{4-[(1,3-benzodioxol-5-ylmethyl)amino]-4-oxobutyl}-17,17-difluoroestra-1(10),2,4-trien-3-yl]boronic acid] | 8 | 32.8 |  |  | 40 | 57 |
| Cc1cccc2c(CCNC(=O)CC[C@@H]3CC(=O)[C@@]4(C)CC[C@@H]5c6ccc(B(O)O)cc6CC[C@H]5[C@H]34)c[nH]c12 [Compound 30, [15beta-(3-{[2-(7-methyl-1H-indol-3-yl)ethyl]amino}-3-oxopropyl)-17-oxoestra-1(10),2,4-trien-3-yl]boronic acid] | 1.3 | 6.3 |  |  | 50 | 56 |
| Cc1cnc(NC(=O)CC[C@@H]2CC(F)(F)[C@@]3(C)CC[C@@H]4c5ccc(C(N)=O)cc5CC[C@H]4[C@H]23)s1 [Compound 8, 17,17-difluoro-15beta-{3-[(5-methyl-1,3-thiazol-2-yl)amino]-3-oxopropyl}estra-1(10),2,4-triene-3-carboxamide] |  |  | 4 | 46 |  |  |
| C[C@]12CC[C@@H]3c4ccc(B(O)O)cc4CC[C@H]3[C@@H]1[C@@H](CCCC(=O)NCc1ccc(O)c(O)c1)CC2=O [Compound 12, [15alpha-{4-[(3,4-dihydroxybenzyl)amino]-4-oxobutyl}-17-oxoestra-1(10),2,4-trien-3-yl]boronic acid] | -5 | 6.2 |  |  | 32 | 57 |
| C[C@]12CC[C@@H]3c4ccc(B(O)O)cc4CC[C@H]3[C@@H]1[C@@H](CCCC(=O)N1CCCCC1)CC2=O [Compound 20, [17-oxo-15alpha-(4-oxo-4-piperidin-1-ylbutyl)estra-1(10),2,4-trien-3-yl]boronic acid] |  |  | 15 | 57 |  |  |
| C[C@]12CC[C@@H]3c4ccc(B(O)O)cc4CC[C@H]3[C@@H]1[C@H](CCC(=O)Nc1ccc3c(c1)OCO3)CC2=O [Compound 45, [15beta-[3-(1,3-benzodioxol-5-ylamino)-3-oxopropyl]-17-oxoestra-1(10),2,4-trien-3-yl]boronic acid] | -1 | -1.1 |  |  | 49 | 66 |
| Cc1cnc(NC(=O)CC[C@@H]2CC(=O)[C@@]3(C)CC[C@@H]4c5ccc(B(O)O)cc5CC[C@H]4[C@H]23)s1 [Compound 11, [15β-{3-[(5-methyl-1,3-thiazol-2-yl)amino]-3-oxopropyl}-17-oxoestra-1(10),2,4-trien-3-yl]boronic acid] | 4.2 | 5.5 |  |  | 62 | 88 |
| C[C@]12CC[C@@H]3c4ccc(B(O)O)cc4CC[C@H]3[C@@H]1[C@@H](CCCC(=O)N1CCOCC1)CC2(F)F [Compound 47, [17,17-difluoro-15alpha-(4-morpholin-4-yl-4-oxobutyl)estra-1(10),2,4-trien-3-yl]boronic acid] | 3.8 | 12.9 |  |  | 10 | 61 |
| CCN(CC)C(=O)CC[C@@H]1CC(=O)[C@@]2(C)CC[C@@H]3c4ccc(B(O)O)cc4CC[C@H]3[C@H]12 [Compound 39, [15beta-[3-(diethylamino)-3-oxopropyl]-17-oxoestra-1(10),2,4-trien-3-yl]boronic acid] | 1.8 | -0.6 |  |  | 74 | 88 |
| C[C@]12CC[C@@H]3c4ccc(NCc5ccccc5)cc4CC[C@H]3[C@@H]1[C@@H](CCCC(=O)N1CCOCC1)CC2=O [Compound 98, 3-(benzylamino)-15alpha-(4-morpholin-4-yl-4-oxobutyl)estra-1(10),2,4-trien-17-one] |  |  | 15 | 48 |  |  |
| C[C@]12CC[C@@H]3c4ccc(B(O)O)cc4CC[C@H]3[C@@H]1[C@@H](CCCC(=O)N1CCCCC1)CC2(F)F [Compound 57, [17,17-difluoro-15alpha-(4-oxo-4-piperidin-1-ylbutyl)estra-1(10),2,4-trien-3-yl]boronic acid] |  |  | 28 | 78 |  |  |
